# Reference: US9884806B2, “Cyclic vinylogous amides as bromodomain inhibitors” (ICAHN SCHOOL OF MEDICINE AT MOUNT SINAI, priority 2013, dated 2018)
# Experiments:
# [1] = biological target: T1, first bromodomain (BrD1) of human BRD4 (Homo sapiens, UniProt O60885); assay: Fluorescence anisotropy binding assay (competition with FITC-labeled MS417 probe); conditions: FITC-MS417 probe 80 nM, PBS pH 7.4, 1 hour, 25° C., read-out: BRD4_1 IC50
# T1 construct: the first bromodomain (BrD1) of human BRD4; poly-His (cleaved yes); made in house
# Description: Fluorescence Anisotropy Binding Assay
# Expression and purification of the first bromodomain (BrD1) of human BRD4 in poly-His tag form was performed using a procedure described in the literature [See Zeng et al. Structure 16, 643-652 (2008) and Zhang et al., J Biol Chem 287, 28840-28851 (2012).] The protein was purified by using affinity chromatography on a nickel-IDA column (Invitrogen), followed by the removal of poly-His tag by thrombin cleavage.
# Binding affinity of the newly synthesized compounds to the BRD4 BrD1 was assessed in a fluorescence anisotropy assay using a fluorescein isothiocyanate (FITC)-labeled MS417 as an assay probe (Zhang et al. 2008 op.cit.). Competition binding was performed with a BrD protein (0.25 to 1 μM) and the fluorescent probe (80 nM), and increasing concentration of unlabeled competing ligand in a PBS buffer (pH 7.4) in total volume of 80 μL. Measurements were obtained after 1 hour incubation of the fluorescent ligand and the protein at 25° C. with Safire 2 microplate reader (Tecan). In the assay, fluorescent ligand concentration was ≦2Kd, and protein concentration was set at which 50-80% of fluorescent ligand is bound. Dissociation constant of a competing ligand was calculated with the correction to Cheng-Prussoff equation introduced by Nicolovska-Coleska and colleagues [Nikolovska-Coleska, Z. et al., Anal Biochem 332, 261-273 (2004). Assuming one-site competitive binding model, the equation used to calculate Ki's from IC50 values recovered from fitting data using Prism:
# [formula] where [I50] is the concentration of free inhibitor at 50% inhibition, [L50], the concentration of free labeled ligand at 50% inhibition, and [P0], concentration of free protein at 0% inhibition. Note that Kd for each protein-probe pair is the limit of resolvable Ki in a competition assay.
# [2] = biological target: T2, BRD4_2 (Homo sapiens, UniProt O60885); assay: Fluorescence anisotropy binding assay (competition with FITC-labeled MS417 probe), BRD4_2; conditions: FITC-MS417 probe 80 nM, PBS pH 7.4, 1 hour, 25° C.
# T2 construct: contains two tandem bromodomains (BrD1 and BrD2)
IC50 [1] [µM],IC50 [2] [µM],Structure (SMILES)
1 to 10,1 to 10,COC(=O)c1ccc(NC2=CC(=O)CC2)cc1 [Example 01-1]
1 to 10,1 to 10,NC(=O)c1ccc(NC2=CC(=O)CC2)cc1 [Example 01-2]
> 10,1 to 10,CC1=C(Nc2cccc(C(=O)O)c2)CCC1=O [Example 01-3]
1 to 10,> 10,COC(=O)c1cccc(NC2=C(C)C(=O)CC2)c1 [Example 01-4]
> 10,> 10,CC1=C(Nc2ccc(S(N)(=O)=O)cc2)CCC1=O [Example 01-6]
> 10,> 10,CC1=C(Nc2ccc(C#N)cc2)CCC1=O [Example 01-7]
1 to 10,> 10,CC(=O)c1ccc(NC2=C(C)C(=O)CC2)cc1 [Example 01-9]
1 to 10,1 to 10,"COC(=O)c1ccc(NC2=C(C)C(=O)CC2)c(Cl)c1 [Example 01-11, methyl 3-chloro-4((2-methyl-3-oxocyclopent-1-en-1-yl)amino)benzoate]"
> 10,> 10,"COC(=O)c1ccccc1NC1=C(C)C(=O)CC1 [Example 01-19, methyl 2-((2-methyl-3-oxocyclopent-1-en-1-yl)amino)benzoate]"
1 to 10,1 to 10,"CC1=C(Nc2ccc(S(=O)(=O)Nc3ccccn3)cc2)CCC1=O [Example 01-31, 4-((2-methyl-3-oxocyclopent-1-en-1-yl)amino)-N-(pyridin-2-yl)benzenesulfonamide]"
> 10,> 10,"CC1=C(NC2CCN(C(=O)OC(C)(C)C)CC2)CCC1=O [Example 01-32, tert-Butyl 4-((2-methyl-3-oxocyclopent-1-en-1-yl)amino)piperidine-1-carboxylate]"
> 10,> 10,"CC1=C(N[C@H]2CC[C@H](C(=O)O)CC2)CCC1=O [Example 01-33, trans-(1R,4R)-4-((2-methyl-3-oxocyclopent-1-en-1-yl)amino)cyclo6hexane-carboxylic acid]"
> 10,> 10,"CC1=C(N[C@H]2CC[C@@H](C(=O)O)CC2)CCC1=O [Example 01-34, cis-(1S,4S)-4-((2-methyl-3-oxocyclopent-1-en-1-yl)amino)cyclohexanecarboxylic acid]"
1 to 10,1 to 10,"CC1=C(Nc2cccc(S(N)(=O)=O)c2)CCC1=O [Example 01-45, 3((2-methyl-3-oxocyclopent-1-en-1-yl)amino)benzenesulfonamide]"
1 to 10,1 to 10,"CC1=C(Nc2cc(S(N)(=O)=O)ccc2Cl)CCC1=O [Example 01-46, 4-chloro-3-((2-methyl-3-oxocyclopent-1-en-1-yl)amino)benzene-sulfonamide]"
1 to 10,> 10,"CC1=C(Nc2cccc(N)c2Cl)CCCC1=O [Example 02-11, 3-((3-amino-2-chlorophenyl)amino)-2-methylcyclohex-2-enone]"
1 to 10,1 to 10,"CC1=C(Nc2ccc(N)cc2Cl)CCC1=O [Example 02-14, 3-((4-amino-2-chlorophenyl)amino)-2-methylcyclopent-2-enone]"
1 to 10,1 to 10,CC1=C(Nc2ccc(C(=O)Nc3ccccc3)cc2)CCC1=O [Example 03-1]
> 10,> 10,CC1=C(Nc2ccc(C(=O)N(C)c3ccccc3)cc2)CCC1=O [Example 03-2]
1 to 10,1 to 10,COc1ccc(NC(=O)c2ccc(NC3=C(C)C(=O)CC3)cc2)cc1 [Example 03-6]
1 to 10,1 to 10,CC1=C(Nc2ccc(C(=O)Nc3ccc(C)cc3)cc2)CCC1=O [Example 03-7]
1 to 10,1 to 10,CC1=C(Nc2ccc(C(=O)Nc3cccc(C)c3)cc2)CCC1=O [Example 03-9]
1 to 10,1 to 10,"COc1ccccc1NC(=O)c1ccc(NC2=C(C)C(=O)CC2)cc1 [Example 03-10, N-(2-methoxyphenyl)-4-((2-methyl-3-oxocyclopent-1-en-1-yl)amino)benzamide]"

IC50 [1] [µM],IC50 [2] [µM],Structure (SMILES)
1 to 10,> 10,"COc1cccc(NC(=O)c2ccc(NC3=C(C)C(=O)CC3)cc2)c1 [Example 03-11, N-(3-methoxyphenyl)-4-((2-methyl-3-oxocyclopent-1-en-1-yl)amino)benzamide]"
1 to 10,1 to 10,"CC1=C(Nc2ccc(C(=O)Nc3cccc4ccccc34)cc2)CCC1=O [Example 03-16, 4-((2-methyl-3-oxocyclopent-1-en-1-yl)amino)-N-(naphthalen-1-yl)benzamide]"
1 to 10,1 to 10,"CC1=C(Nc2ccc(C(=O)NCc3ccccc3)cc2)CCC1=O [Example 03-18, N-benzyl-4-((2-methyl-3-oxocyclopent-1-en-1-yl)amino)benzamide]"
1 to 10,1 to 10,"CC1=C(Nc2ccc(C(=O)NC3CCCCC3)cc2)CCC1=O [Example 03-19, N-cyclohexyl-4-((2-methyl-3-oxocyclopent-1-en-1-yl)amino)benzamide]"
> 10,> 10,"CC1=C(Nc2ccc(C(=O)N(C)C)cc2)CCC1=O [Example 03-20, N,N-dimethyl-4-((2-methyl-3-oxocyclopent-1-en-1-yl)amino)benzamide]"
1 to 10,1 to 10,"CC1=C(Nc2cccc(C(=O)Nc3ccccc3)c2)CCC1=O [Example 03-23, 3((2-methyl-3-oxocyclopent-1-en-1-yl)amino)-N-phenylbenzamide]"
1 to 10,1 to 10,CC1=C(Nc2cccc(C(=O)NC3CCCCC3)c2)CCC1=O [Example 04-1]
1 to 10,1 to 10,CC1=C(Nc2cccc(C(=O)Nc3cccc4ccccc34)c2)CCC1=O [Example 04-2]
1 to 10,> 10,CC1=C(Nc2cccc(C(=O)Nc3ccncc3)c2)CCC1=O [Example 04-3]
1 to 10,1 to 10,COc1ccc(NC(=O)c2cccc(NC3=C(C)C(=O)CC3)c2)cc1 [Example 04-4]
1 to 10,1 to 10,CC1=C(Nc2cccc(C(=O)Nc3ccccc3C)c2)CCC1=O [Example 04-5]
1 to 10,> 10,CC1=C(Nc2cccc(C(=O)Nc3cccc(C)c3)c2)CCC1=O [Example 04-6]
1 to 10,> 10,CC1=C(Nc2cccc(C(=O)Nc3ccc(C)cc3)c2)CCC1=O [Example 04-7]
1 to 10,1 to 10,CC1=C(Nc2cccc(C(=O)Nc3ccccc3F)c2)CCC1=O [Example 04-8]
1 to 10,1 to 10,"CNC(=O)c1ccc(NC2=C(C)C(=O)CC2)c(Cl)c1 [Example 04-13, 3-chloro-N-methyl-4-((2-methyl-3-oxocyclopent-1-en-1-yl)amino)benzamide]"
< 1,1 to 10,"CC1=C(Nc2ccc(C(=O)NC3CCCCC3)cc2Cl)CCC1=O [Example 04-14, 3-chloro-N-cyclohexyl-4-((2-methyl-3-oxocyclopent-1-en-1-yl)amino)benzamide]"
1 to 10,1 to 10,"CC1=C(Nc2ccc(C(=O)Nc3ccccc3)cc2Cl)CCC1=O [Example 04-16, 3-chloro-4-((2-methyl-3-oxocyclopent-1-en-1-yl)amino)-N-phenylbenzamide]"
< 1,1 to 10,"COc1cccc(NC(=O)c2ccc(NC3=C(C)C(=O)CC3)c(Cl)c2)c1 [Example 04-18, 3-chloro-N-(3-methoxyphenyl)-4-((2-methyl-3-oxocyclopent-1-en-1-yl)amino)benzamide]"
< 1,1 to 10,"CC1=C(Nc2ccc(C(=O)Nc3cccc(C)c3)cc2Cl)CCC1=O [Example 04-21, 3-chloro-4-((2-methyl-3-oxocyclopent-1-en-1-yl)amino)-N-(m-tolyl)benzamide]"
1 to 10,1 to 10,"CC1=C(Nc2ccc(C(=O)Nc3ccc(C)cc3)cc2Cl)CCC1=O [Example 04-22, 3-chloro-4-((2-methyl-3-oxocyclopent-1-en-1-yl)amino)-N-(p-tolyl)benzamide]"
> 10,> 10,"CC1=C(N[C@H]2CC[C@H](C(=O)Nc3ccccc3)CC2)CCC1=O [Example 04-26, (1R,4R)-4-((2-methyl-3-oxocyclopent-1-en-1-yl)amino)-N-phenylcyclohexane-carboxamide]"
> 10,> 10,"CC1=C(N[C@H]2CC[C@H](C(=O)Nc3ccccc3C)CC2)CCC1=O [Example 04-30, (1R,4R)-4-((2-methyl-3-oxocyclopent-1-en-1-yl)amino)-N-(o-tolyl)cyclohexanecarboxamide]"
